Measurements as given in ChEMBL document CHEMBL3507680, “University of Dundee, Gates Library screen for HepG2 cell viability”.

Test: Human HepG2 cell viability assay in 384 well format
Assay type: toxicity, cell-based
Design: dose 125 nL, time 70.5 hour; cytotoxicity at 70.5 h: concentration not given beside the values
Details: HepG2 cells, read-out: Inhibition

Structure (SMILES)	cytotoxicity at 70.5 h [%]
O=S(=O)(Cc1ccccc1)NCc1ccco1	-5.52
COc1cccc2cc(CNC(=O)N3CCC(C(N)=O)CC3)oc12	-8.48
CSCC(C)NCc1ccc2[nH]c(C)c(C)c2c1 (stereo not given)	1.07
CC(C)(NC(=O)c1coc(COc2cccc(F)c2)n1)C(N)=O	-8.32
Cc1nn(C)c(C)c1NC(=O)CN1CCOC(Cn2cccn2)C1 (stereo not given)	-1.52
CCOc1nnc(CN2CCCC(c3nc4ccccc4[nH]3)C2)s1 (stereo not given)	-3.56
CCN(CC)S(=O)(=O)N1CCCC1c1cccc(Nc2ncc(C)s2)n1 (stereo not given)	-11.3
CCN1C(=O)C2(CCOCC2)c2cc(NC(=O)c3cccn3C)ccc21	-0.784
Cc1nc(CCNC(=O)NC2CCCc3c2cnn3CCO)cs1 (stereo not given)	-9.35
O=C([C@@H]1CC[C@@H]2[C@@H](CCN2Cc2cccs2)O1)N1CCCCO1	-7.83
CN1CCN(Cc2ccccc2CNC(=O)c2ccc(Br)cc2F)CC1	-4.3
Cc1nn(C)c(C)c1NC(=O)CN1CCCC1c1c(C)nn(C)c1C (stereo not given)	-3.45
O=C1CC2(CCN(C(=O)Cc3cc4c(cc3Cl)OCCO4)C2)C(=O)N1 (stereo not given)	-5.25
O=C(CCc1cc(Cl)no1)N1CCC(c2cc3ncccc3cn2)CC1	0.563
Cc1nc(CCNC(=O)c2cc(C(C)C)nn2C)sc1C	-10.1
O=C(CN1C(=O)c2ccccc2C1=O)N1CCOC2(CCOCC2)C1	3.73
CCn1cc2c(n1)CN(S(=O)(=O)Cc1ccccc1)CC2COC (stereo not given)	11.6
CC(NC(=O)CCc1cccc(OC2CCCC2)c1)c1nncn1C (stereo not given)	2.36
Cn1cc(CN2CCC[C@]3(C[C@@H](Oc4ncccc4F)CO3)C2)cn1	-6.45
Cc1noc([C@H]2COC[C@H]3CN(C(=O)Cc4ccc(F)cc4)C[C@H]32)n1	-2.96
c1cc(CN2CCc3nc(N4CCOCC4)nc(NC4CC4)c3C2)co1	-10.6
Cn1ncc2cnn(CC(O)COCc3ccccc3Cl)c2c1=O (stereo not given)	-5.81

Structure (SMILES)	cytotoxicity at 70.5 h [%]
O=C(C1SCCc2sccc21)N1CCN(CCO)CC1 (stereo not given)	-2.81
O=C([C@H]1C[C@@H]2CN(c3ncc(F)cn3)C[C@H]1O2)N1CCOCC1	-7.72
Cc1cc(Cn2cncc(Br)c2=O)on1	5.25
Fc1ccc(CN2CCCC2Cn2cccn2)c2ncccc12 (stereo not given)	-10.6
CN(CCN1CCOCC1)C(=O)CCCc1ccccc1	-2.26
c1cnc(NCc2cncc3c2CCN(Cc2ccsc2)C3)nc1	-7.81
Cn1cnnc1SCc1cc2c(cc1Br)OCO2	-1.06
CCS(=O)(=O)N1CCN(CCn2cccn2)c2nc(C)ccc2C1	-2.39
CCCN1CCCN(c2ccc(-n3ccc(C)n3)nn2)CC1	-7.57
Cc1cc(F)cc(NC(=O)N(C)CC(C)(CO)CO)c1	-1.87
Cc1cc(C(=O)NCC(C)N2CCc3ccccc32)on1 (stereo not given)	7.49
CN1CC[C@H](N(Cc2ccccc2)Cc2ccccc2)C[C@H](O)C1	11.2
Cc1n[nH]c(C)c1Sc1ccccc1NC(=O)N1CCOCC(O)C1 (stereo not given)	2.32
Cc1ccc(CN2CC[C@H]3OCC[C@@]3(COCC(=O)N(C)C)C2)s1	15.2
CO[C@@H]1CC[C@@H](NC(=O)c2ccc(OCCN3CCCC3)cc2)[C@H]1O	-4.63
CCc1ccccc1OCCN1CC[C@@]2(O)CCNC[C@H]2C1	-3.34
COCC(C)NC(=O)c1cncc(Br)c1 (stereo not given)	-0.743
CCN(Cc1nc2c(cnn2C)c(=O)[nH]1)Cc1cccs1	-7.33
COC1CN(C(=O)CC(C)(C)C)CCC(=O)N(C)c2ccccc21 (stereo not given)	-4.95
COc1ccc(O)c(C(=O)NCC2CCCN(C3CCOCC3)C2)c1 (stereo not given)	-10.8
COCCC(=O)N1CCC2(CCCN2Cc2cccc(Cl)c2)C1 (stereo not given)	-53.8
COC1COC2(CCN(C(=O)c3ncccn3)CC2)C1 (stereo not given)	14.8

Structure (SMILES)	cytotoxicity at 70.5 h [%]
Cc1c(NCCO)cccc1OC1CCCC1	-2.5
Cc1nn(C)c2c(NCCCn3cccn3)ncnc12	-6.36
Cc1nn(C)c(C)c1C1CCCN1CC(=O)NCc1ccco1 (stereo not given)	7.36
CN1CCOC(C(=O)N2CCOC3(CCCC3)C2)C1 (stereo not given)	-1.85
Cn1cc(CN2CCc3nc4sccc4c(=O)n3CC2)cn1	-3.58
CC(=O)c1ccc(OCC(=O)NS(=O)(=O)c2ccc(C)s2)cc1	-14
Cc1nn(C)c(C)c1Cc1nc(N(C)C)no1	-0.362
COC[C@@H]1CC[C@H]2[C@H](CCN2S(=O)(=O)c2cccc(F)c2)O1	-5.66
O=C(Nc1ccccc1CCc1ccccn1)NC1CCOCC1	0.573
Cn1ncc2c(N[C@@H]3CS(=O)(=O)C[C@H]3O)nc(C(C)(C)C)nc21	-9.52
CSc1ccc(C2CC(=O)Nc3c2c(=O)[nH]c2ncnn32)cc1 (stereo not given)	6.12
COc1ccc(CN2CCCn3cnc(COCC4CC4)c3C2)cc1	1.46
COc1c(CNC2CCOc3c(Cl)cccc32)c(C(C)C)nn1C (stereo not given)	11.4
CCC(O)(CNCc1ncc[nH]1)c1ccc(Br)cc1 (stereo not given)	-1.16
Cc1nc(COC[C@]23COC[C@H]2CN(Cc2ccoc2)C3)cs1	-9.47
CC(C)NC(=O)N[C@H]1C[C@@H](c2nc(-c3ccc(F)cc3)no2)N(C)C1	-4.13
CN1CCC/C1=N\S(=O)(=O)c1ccc(NC(=O)c2ccc(Cl)s2)cc1	-18.3
Cc1cc(NC(=O)CN2CCCC2c2noc(C3CC3)n2)no1 (stereo not given)	1.09
C=C(C)CN1CCN(Cc2cnc(OC)nc2)CC1	6.5
COC(=O)C1Cc2nc[nH]c2CN1Cc1ccc(Sc2ncccn2)o1 (stereo not given)	-0.897
CCSc1ccccc1C(=O)N1CC2(COC(C)(C)OC2)C1	-4.65
COc1cc(C(=O)N2CCO[C@H]3[C@H](OCC4CC4)CC[C@@H]32)ccc1F	-5.96

Structure (SMILES)	cytotoxicity at 70.5 h [%]
CCO[C@@H]1CO[C@@]2(CCCN(C(=O)COc3ccccc3OC)C2)C1	-9.81
Cc1cccc2cc(CN3CCCN4CCC[C@H]4C3)c(=O)[nH]c12	1.79
CCNc1ncc(C(=O)NC(CCN(C)C)c2ccccc2)cn1 (stereo not given)	26.8
Cc1ccc(CN(CCCn2ccnc2)Cc2c[nH]cn2)s1	-0.992
Cc1ccc(S(=O)(=O)Nc2ccc(-n3cccc3C(=O)O)c(C)c2)s1	-3.61
O=C(C1CC1)N1C[C@@H](F)[C@@H](OCc2nc3ccccc3o2)C1	0.185
CN1CCN2C(=O)N(C3CCCCC3)C[C@H]2C1	-5.56
O=C1CCCN1Cc1ncn2c1CN(C(=O)N1CCCC1)CCC2	0.134
O=C(CC1CC1)N1CCC2(CCCN(CCOc3ccccc3)C2)C1 (stereo not given)	-11.8
CN(Cc1ccc(F)c(F)c1)Cc1cc2c(cc1Br)OCCO2	-8.74
c1ccc(OC[C@]23COC[C@H]2CN(Cc2ccoc2)C3)nc1	-12.9
CC(C)C(C(=O)N1CCCN(c2nccs2)CC1)n1cncn1 (stereo not given)	1.24
Fc1ccc(-c2nnc(CN3CCCC3Cn3cccn3)o2)cc1 (stereo not given)	-19.8
O=C(O)c1ccnc(SCC(F)(F)F)c1	-10.8
COc1cccc(NC(=O)Cn2cc(-c3ccccc3)ncc2=O)c1	-8.81
CCOc1ccccc1-n1c(C2CC2)n[nH]c1=O	-16.7
Cc1ccc(Cn2nc(C)c3c(C(=O)O)c(Cl)c(C4CC4)nc32)cc1	-4.45
OCC1(CC2CCCCO2)CCN(c2cnc3ccccc3n2)CC1 (stereo not given)	-12.6
Cc1nc(S(=O)(=O)CCn2cccn2)n(CC2CCCO2)c1C (stereo not given)	-2.87
CN1CC(=O)N(c2cccnc2)CC12CCN(C(=O)C1CCCCC1)C2 (stereo not given)	36.1
Cc1nc(C)c(CC(=O)N2C[C@@H](C(=O)O)[C@H](c3ccccc3C)C2)s1	-17
COc1ccc(CC2CN(C3CCSCC3)CCO2)cc1 (stereo not given)	1.2

Structure (SMILES)	cytotoxicity at 70.5 h [%]
CCC1=N[C@@]2(CC[C@@H]3CN(S(=O)(=O)CC)C[C@@H]32)C(=O)N1CC	-2.37
Cn1cccc1CN1CCC2(CC1)CC(Oc1cccnc1)C2	6.62
CN(C)CCN(Cc1ccc(C#N)cc1)C(=O)c1ccn(C)c(=O)c1	24.8
Cn1c(CN2CCCCC2)nnc1C1CCCN(c2ccncc2F)C1 (stereo not given)	-5.33
Cc1nccc([C@H]2C[C@@H]3CCN(C(=O)c4c(C)noc4C)C[C@H]3O2)n1	7.48
Cc1c[nH]c(C2CCCN(Cc3cccc(C(=O)O)c3)C2)n1 (stereo not given)	-4.03
Fc1cnc(N2CCCC3(CCN(Cc4nccs4)C3)C2)nc1 (stereo not given)	15
Cc1ccc(-c2nc(CN(Cc3ccco3)C3CCS(=O)(=O)C3)cs2)o1 (stereo not given)	15.2
COCC(=O)N1CCC(c2cc(C(F)(F)F)n3ccnc3n2)CC1	-8.3
CN1CCC(N(C)CCC(=O)N2CCC(CCc3ccccc3)CC2)C1 (stereo not given)	26.3
CC(C)CS(=O)(=O)N1C[C@H]2C[C@H](C(=O)N(C)C)[C@@H](C1)O2	-1.1
CN(C)C(=O)CO[C@@H]1CN(Cc2ccccc2)[C@@H]2CCCO[C@@H]21	6.93
NC(=O)[C@@H]1CCCN1C(=O)c1cn(C/C=C/c2ccccc2)nn1	-14
Oc1cccc(-c2cc(C3CCN(Cc4cncnc4)C3)ccn2)c1 (stereo not given)	-3.45
O=C(Cc1ccccc1Br)NCC(=O)Nc1cn[nH]c1	-6.36
COCCn1ccnc1C1CCN(C(=O)CSc2nnc(C)s2)CC1	-5.74
O=C(NCc1cnc2n1CCN(c1ncc(F)cn1)CC2)C1CCC1	-9.1
Cn1ccnc1CN1CCCC(CCCc2ccccn2)(C(N)=O)C1 (stereo not given)	-4.1
Cc1cc(N(Cc2ccccc2F)C2CC2)n2nc(C(F)(F)F)nc2n1	-1.77
O=C(NCCCSc1ccc(F)cc1)C1CCc2cn[nH]c2C1 (stereo not given)	-4.46
Cc1ccc(C(=O)NCC(O)CN2CCCC2=O)c(C)c1 (stereo not given)	-1.64
CN(C)C(CNC(=O)c1ncoc1-c1ccccc1)c1ccsc1 (stereo not given)	-11.1
